We go through 32 molecules from ChEMBL document CHEMBL3400074, “Development of 2-amino-5-phenylthiophene-3-carboxamide derivatives as novel inhibitors of Mycobacterium tuberculosis DNA GyrB domain” (Bioorg Med Chem, 2015).

Values after ≈ are worked out from the molar mass of the structure shown.

For this test, the system named is Mycobacterium tuberculosis. The experiment in a line: Antibacterial activity against multidrug-resistant Mycobacterium tuberculosis H37Rv ATCC 27294 after 28 days by agar dilution method. To be noted: H37Rv ATCC 27294, 672 h. The format is functional. On the technique in general: Agar dilution tests growth on a series of plates holding different concentrations.
Consider `NC(=O)c1cc(-c2ccccc2)sc1NC(=O)Nc1ccc(Br)cc1`, for which inhibition of growth (MIC) required 15 µM (≈ 6.25 µg/mL).
The figure for `NC(=O)c1cc(-c2ccccc2)sc1NC(=O)Nc1ccc(Cl)cc1` is 8.42 µM (≈ 3.13 µg/mL); for `NC(=O)c1cc(-c2ccccc2)sc1NC(=O)Nc1ccc(F)cc1` it is 17.6 µM (≈ 6.25 µg/mL); for `NC(=O)c1cc(-c2ccccc2)sc1NC(=O)Nc1ccc([N+](=O)[O-])cc1` it is 16.3 µM (≈ 6.24 µg/mL).
The figure for `NC(=O)c1cc(-c2ccccc2)sc1NC(=O)Nc1ccccc1` is 9.27 µM (≈ 3.13 µg/mL); for `Cc1ccc(NC(=O)Nc2sc(-c3ccccc3)cc2C(N)=O)cc1` it is 35.6 µM (≈ 12.5 µg/mL).
Turning to `NC(=O)c1cc(-c2ccccc2)sc1NC(=O)NCc1ccccc1`, inhibition of growth (MIC) required 18.5 µM (≈ 6.5 µg/mL).
The result for `CC(C)NC(=O)Nc1sc(-c2ccccc2)cc1C(N)=O` reads 10.2 µM (≈ 3.11 µg/mL).
For `NC(=O)c1cc(-c2ccccc2)sc1NC(=S)Nc1ccc(Br)cc1`, the MIC (as a rule, the smallest concentration in the dilution series that meets the test's criterion for growth inhibition) stood at 18 µM (≈ 7.78 µg/mL).
The result for `NC(=O)c1cc(-c2ccccc2)sc1NC(=S)Nc1ccc(Cl)cc1` reads 80.7 µM (≈ 31.3 µg/mL); that for `NC(=O)c1cc(-c2ccccc2)sc1NC(=S)Nc1ccc(F)cc1`, 67.4 µM (≈ 25 µg/mL).
The result for `NC(=O)c1cc(-c2ccccc2)sc1NC(=S)Nc1ccc([N+](=O)[O-])cc1` reads 78.5 µM (≈ 31.3 µg/mL).
The result for `NC(=O)c1cc(-c2ccccc2)sc1NC(=S)Nc1ccccc1` reads 70.8 µM (≈ 25 µg/mL); that for `Cc1ccc(NC(=S)Nc2sc(-c3ccccc3)cc2C(N)=O)cc1`, 8.5 µM (≈ 3.12 µg/mL).
`NC(=O)c1cc(-c2ccccc2)sc1NC(=S)NCc1ccccc1` came in with an MIC of 34 µM (≈ 12.5 µg/mL).
As to `CC(C)NC(=S)Nc1sc(-c2ccccc2)cc1C(N)=O`, the MIC is 19.6 µM (≈ 6.26 µg/mL).
`NC(=O)c1cc(-c2ccccc2)sc1NC(=O)c1ccc(Cl)cc1` displayed a minimum inhibitory concentration (MIC) of 8.76 µM (≈ 3.13 µg/mL).
The figure for `NC(=O)c1cc(-c2ccccc2)sc1NC(=O)c1ccc([N+](=O)[O-])cc1` is 8.48 µM (≈ 3.12 µg/mL).
The result for `NC(=O)c1cc(-c2ccccc2)sc1NC(=O)c1cccc2ccccc12` reads 25 µM (≈ 9.3 µg/mL); that for `NC(=O)c1cc(-c2ccccc2)sc1NC(=O)c1cnccn1`, 38.6 µM (≈ 12.5 µg/mL).
Molecule `NC(=O)c1cc(-c2ccccc2)sc1NC(=O)c1cc2ccccc2[nH]1` gave a minimal inhibitory concentration (MIC) of 34.6 µM (≈ 12.5 µg/mL).
The result for `NC(=O)c1cc(-c2ccccc2)sc1NC(=O)c1ccc(Oc2ccccc2)cc1` reads 15.1 µM (≈ 6.25 µg/mL).
The figure for `NC(=O)c1cc(-c2ccccc2)sc1NC(=O)c1ccccc1` is 4.84 µM (≈ 1.56 µg/mL); for `CC(=O)Nc1sc(-c2ccccc2)cc1C(N)=O` it is 24 µM (≈ 6.26 µg/mL); for `CCC(=O)Nc1sc(-c2ccccc2)cc1C(N)=O` it is 22.8 µM (≈ 6.26 µg/mL).
Consider `CCCC(=O)Nc1sc(-c2ccccc2)cc1C(N)=O`, for which the MIC was found to be 10.8 µM (≈ 3.13 µg/mL).
The result for `NC(=O)c1cc(-c2ccccc2)sc1NC(=O)C1CCCC1` reads 39.7 µM (≈ 12.5 µg/mL); that for `NC(=O)c1cc(-c2ccccc2)sc1NC(=O)C1CCCCC1`, 9.48 µM (≈ 3.11 µg/mL); that for `CC[C@@H](CO)NCCN[C@@H](CC)CO` [ETHAMBUTOL], 7.64 µM (≈ 1.56 µg/mL).
`NNC(=O)c1ccncc1` [ISONIAZID]: the lowest concentration to inhibit growth (MIC) was 0.66 µM (≈ 0.0905 µg/mL).
Molecule `CC1COc2c(N3CCN(C)CC3)c(F)cc3c(=O)c(C(=O)O)cn1c23` (configuration not stated) [OFLOXACIN] registered an MIC of 2.16 µM (≈ 0.781 µg/mL).
The figure for `CO[C@H]1/C=C/O[C@@]2(C)Oc3c(C)c(O)c4c(O)c(c(/C=N/N5CCN(C)CC5)c(O)c4c3C2=O)NC(=O)/C(C)=C\C=C\[C@H](C)[C@H](O)[C@@H](C)[C@@H](O)[C@@H](C)[C@H](OC(C)=O)[C@@H]1C` [RIFAMPIN] is 0.23 µM (≈ 0.189 µg/mL).
